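The compound was tested at five concentrations on cells cultured in 96-well plates, with a 48-hour exposure period. At the GI50, growth is halved.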 Activity calls are given as the source filed them. Cut-off read from the data, not from the text of the source: active = GI50 up to about 1.1 µM and inactive = higher. Some results are limits rather than exact numbers.

Consider 8 compounds from ChEMBL document CHEMBL1201862, “PubChem BioAssay data set” (2004).

Among the test systems are A498; OVCAR-5; HCT-15; HT-29; 786-0; IGROV-1; OVCAR-8; NCI-H522; SNB-75; RXF 393; CCRF-CEM; SF-295; SK-MEL-5; SF-539; COLO 205; SW-620; UACC-62; M14; NCI-H226; HCT-116.
What all share (experiment): NCI-60 cell line screen, 48 h

Take `NC(=O)OCC(COc1ccc(Cl)cc1)OC(=O)c1cc([N+](=O)[O-])cc([N+](=O)[O-])c1` (stereo not given): the GI50 in the assay on A498 is > 100 µM (inactive); in the assay on OVCAR-5, > 100 µM (inactive); with HCT-15, 33.5 µM; with HT-29, > 100 µM (inactive); in the assay on 786-0, 41.6 µM (inactive); with IGROV-1, > 100 µM (inactive). Besides, the GI50 in the assay on OVCAR-8 was > 100 µM (inactive); with NCI-H522, 79.3 µM (inactive); in the assay on SNB-75, > 100 µM (inactive); with RXF 393 it was > 100 µM (inactive); with CCRF-CEM, 97.3 µM (inactive); in the assay on SF-295, > 100 µM (inactive). In addition, the GI50 in the assay on SK-MEL-5 is > 100 µM (inactive); with SF-539, > 100 µM (inactive); with COLO 205, 39 µM (inactive); with SW-620, 13.2 µM (inactive); in the assay with UACC-62 it was > 100 µM (inactive); in the assay on M14 it was > 100 µM (inactive). Further, the results for the GI50 in the assay with NCI-H226 and with HCT-116 were > 100 µM (inactive) and 35.8 µM (inactive), respectively.

As for `ON(Cc1ccccc1)C(=S)c1ccccc1`, the GI50 with A498 is 25.3 µM (inactive); with OVCAR-5, 17.9 µM (inactive); with HCT-15, 2.6 µM; in the assay on HT-29, 2.88 µM (inactive); in the assay with 786-0 it was 4.82 µM (inactive); in the assay with IGROV-1, 5.86 µM (inactive). Besides, the GI50 in the assay on OVCAR-8 was 3.46 µM (inactive); with NCI-H522, 0.482 µM (active); with SNB-75 it was 19 µM (inactive); in the assay with RXF 393, 8.97 µM (inactive); with CCRF-CEM, 0.342 µM (active); in the assay with SF-295, 3.42 µM (inactive). For the same compound, the GI50 in the assay with SK-MEL-5 was 4.47 µM (inactive); with SF-539, 5.43 µM (inactive); in the assay with COLO 205, 1.45 µM (inactive); with SW-620, 4.23 µM (inactive); with UACC-62, 2.43 µM (inactive); in the assay with M14 it was 5.21 µM (inactive). Further, the GI50 in the assay on NCI-H226 was 20.1 µM (inactive); in the assay with HCT-116, 3.4 µM (inactive).

For `C=CCCON(C(=O)OC(C)(C)C)c1ccccc1`, the GI50 in the assay with A498 is > 100 µM (inactive); in the assay with OVCAR-5, > 100 µM (inactive); in the assay on HCT-15 it was over 100 µM; with HT-29, 47.9 µM (inactive); with 786-0, 74 µM (inactive); in the assay on IGROV-1, > 100 µM (inactive). Moreover, the GI50 in the assay on OVCAR-8 was > 100 µM (inactive); in the assay with NCI-H522, 43.3 µM (inactive); with SNB-75 it was 82.6 µM (inactive); with RXF 393 it was > 100 µM (inactive); in the assay with CCRF-CEM it was 12.2 µM (inactive); with SF-295 it was > 100 µM (inactive). For the same compound, the GI50 with SK-MEL-5, in the assay with SF-539, in the assay on COLO 205, in the assay on SW-620, in the assay on UACC-62 and in the assay on M14 was > 100 µM (inactive) each time. Moreover, the GI50 in the assay on NCI-H226 is > 100 µM (inactive); in the assay with HCT-116 it was 44.6 µM (inactive).

For the compound `Brc1cc(CCOC2CCCCO2)c(-c2sccc2CCOC2CCCCO2)s1` (stereo not given), the GI50 in the assay with A498 was > 69 µM (inactive); in the assay with OVCAR-5 it was > 100 µM (inactive); with HCT-15 it was 33.3 µM; with HT-29, 61.8 µM (inactive); in the assay on 786-0, 35.1 µM (inactive); in the assay on IGROV-1, 53.2 µM (inactive). Further, the GI50 in the assay on OVCAR-8 is 45.5 µM (inactive); with NCI-H522, 14.4 µM (inactive); in the assay on SNB-75, 43.5 µM (inactive); with RXF 393, 0.8 µM (active); in the assay on CCRF-CEM, 19.9 µM (inactive); in the assay with SF-295, 18.7 µM (inactive). The GI50 in the assay on SK-MEL-5 was 26.9 µM (inactive); with SF-539, 55.5 µM (inactive); in the assay with COLO 205, 43.4 µM (inactive); in the assay on SW-620, > 65.8 µM (inactive); in the assay with UACC-62, 58.5 µM (inactive); with M14 it was 31.8 µM (inactive). The GI50 with NCI-H226 was > 100 µM (inactive); in the assay with HCT-116, 23.2 µM (inactive).

In the case of `CC1=CC(=O)CC2(C)CCC(C(C)CC(=O)CC(C)C)CC12` (stereo not given), the GI50 in the assay on A498 is > 100 µM (inactive); in the assay with OVCAR-5, > 100 µM (inactive); in the assay on HCT-15 it was 38.6 µM; with HT-29 it was 25.8 µM (inactive); in the assay with 786-0, 16.4 µM (inactive); in the assay with IGROV-1, 26.2 µM (inactive). Further, the GI50 is 24.5 µM (inactive) in the assay on OVCAR-8; 15.1 µM (inactive) in the assay with NCI-H522; > 100 µM (inactive) in the assay with SNB-75; 23.6 µM (inactive) in the assay on RXF 393; 23.9 µM (inactive) in the assay on CCRF-CEM; 32.5 µM (inactive) in the assay with SF-295. In addition, the GI50 in the assay on SK-MEL-5 is 20.4 µM (inactive); with SF-539 it was 16.4 µM (inactive); in the assay with COLO 205 it was 17.3 µM (inactive); with SW-620, 22.7 µM (inactive); in the assay on UACC-62 it was 25.5 µM (inactive); in the assay on M14, 17.2 µM (inactive). For the same compound, the GI50 in the assay on NCI-H226 is 24.9 µM (inactive); in the assay on HCT-116, 16.1 µM (inactive).

Consider `CC(C)C1=C(O)C(=O)C2=C(C1=O)C(OC=O)C(O)C1C(C)(C)CCCC21C` (stereo not given), for which the GI50 is 14.8 µM (inactive) with A498; 15.8 µM (inactive) with OVCAR-5; 4.04 µM in the assay on HCT-15; 11.2 µM (inactive) in the assay with HT-29; 4.09 µM (inactive) in the assay on 786-0; 10.3 µM (inactive) with IGROV-1. The GI50 with OVCAR-8 was 7.29 µM (inactive); with NCI-H522, 10.8 µM (inactive); in the assay on SNB-75, 10.8 µM (inactive); in the assay with RXF 393, 6.82 µM (inactive); in the assay on CCRF-CEM it was 3.27 µM (inactive); with SF-295, 14.2 µM (inactive). Further, the GI50 was 3.7 µM (inactive) with SK-MEL-5; 13.7 µM (inactive) in the assay with SF-539; 3.54 µM (inactive) with COLO 205; 3.1 µM (inactive) in the assay with SW-620; 6.19 µM (inactive) in the assay on UACC-62; 11.9 µM (inactive) in the assay with M14. The GI50 with NCI-H226 is 5.08 µM (inactive); in the assay with HCT-116, 7.73 µM (inactive).

For `O=c1oc2ccc(-n3c(=O)c4ccccc4c4ccccc4c3=O)cc2c2ccccc12`, the GI50 in the assay on A498 is > 100 µM (inactive); in the assay on OVCAR-5, > 100 µM (inactive); in the assay with HCT-15, over 100 µM; in the assay on HT-29 it was > 100 µM (inactive); in the assay on 786-0 it was 66.2 µM (inactive); with IGROV-1, > 100 µM (inactive). The GI50 is > 100 µM (inactive) in the assay with OVCAR-8; > 100 µM (inactive) in the assay with NCI-H522; 27 µM (inactive) in the assay with SNB-75; 85.1 µM (inactive) in the assay on RXF 393; > 100 µM (inactive) in the assay on CCRF-CEM; > 100 µM (inactive) in the assay with SF-295. Moreover, the GI50 was > 100 µM (inactive) in the assay on SK-MEL-5; > 100 µM (inactive) in the assay with SF-539; > 100 µM (inactive) in the assay on COLO 205; > 100 µM (inactive) in the assay on SW-620; 64.6 µM (inactive) in the assay with UACC-62; > 100 µM (inactive) in the assay on M14. In addition, the GI50 in the assay with NCI-H226 and with HCT-116 was > 100 µM (inactive) each time.

`S=C=NCCc1ccccc1` [PHENETHYLISOTHIOCYANATE]: the GI50 in the assay with A498 is 0.431 µM (active); in the assay with OVCAR-5 it was 1.55 µM (inactive); with HCT-15, 0.228 µM; with HT-29 it was 0.219 µM (active); with 786-0, 0.188 µM (active); in the assay on IGROV-1, 0.435 µM (active). Further, the GI50 in the assay with OVCAR-8 is 1.33 µM (inactive); with NCI-H522 it was 0.193 µM (active); in the assay with SNB-75 it was 2.65 µM (inactive); in the assay with RXF 393, 0.443 µM (active); with CCRF-CEM, 0.186 µM (active); in the assay on SF-295, 1.57 µM (inactive). Further, the GI50 is 0.325 µM (active) in the assay with SK-MEL-5; 0.207 µM (active) in the assay on SF-539; 0.762 µM (active) in the assay with COLO 205; 0.31 µM (active) in the assay with SW-620; 0.839 µM (active) in the assay with UACC-62; 0.46 µM (active) in the assay with M14. Also, the GI50 with NCI-H226 was 1.49 µM (inactive); with HCT-116, 0.453 µM (active).
